From US20190345150A1, “MICROBIOCIDAL OXADIAZOLE DERIVATIVES” (SYNGENTA PARTICIPATIONS AG, priority 2016, published 2019) come the findings set out here.

Structures are written as SMILES.

In data set [1] the test system is Puccinia recondita f. Sp. Tritici. Nature of the data set: Puccinia recondita f. sp. tritici / wheat / leaf disc curative (brown rust). Type of data set: in vivo. The note with it: foliar, 24 h, 200 ppm in the applied formulation, wheat leaf segments cv. Kanzler, curative (applied 1 day after inoculation), compared to untreated control, read-out: disease control. As for the experimental part: Leaf disks or leaf segments of various plant species are cut from plants grown in a greenhouse. The cut leaf disks or segments are placed in multiwell plates (24-well format) onto water agar. The leaf disks are sprayed with a test solution before (preventative) or after (curative) inoculation. Compounds to be tested are prepared as DMSO solutions (max. 10 mg/ml) which are diluted to the appropriate concentration with 0.025% Tween20 just before spraying. The inoculated leaf disks or segments are incubated under defined conditions (temperature, relative humidity, light, etc.) according to the respective test system. A single evaluation of disease level is carried out 3 to 14 days after inoculation, depending on the pathosystem. Percent disease control relative to the untreated check leaf disks or segments is then calculated. Wheat leaf segments cv. Kanzler are placed on agar in multiwell plates (24-well format). The leaf segments are then inoculated with a spore suspension of the fungus. Plates were stored in darkness at 19° C. and 75% relative humidity. The formulated test compound diluted in water was applied 1 day after inoculation. The leaf segments were incubated at 19° C. and 75% relative humidity under a light regime of 12 hours light/12 hours darkness in a climate cabinet and the activity of a compound was assessed as percent disease control compared to untreated when an appropriate level of disease damage appears in untreated check leaf segments (6 to 8 days after application).

For data set [2] the test system is unchanged. Kind of data set: Puccinia recondita f. sp. tritici / wheat / leaf disc preventative (brown rust). Type of data set: in vivo. The note with it: foliar, 200 ppm in the applied formulation, wheat leaf segments cv. Kanzler, preventative (inoculated 1 day after application), compared to untreated control, read-out: disease control. As for the experimental part:
Leaf disks or leaf segments of various plant species are cut from plants grown in a greenhouse. The cut leaf disks or segments are placed in multiwell plates (24-well format) onto water agar. The leaf disks are sprayed with a test solution before (preventative) or after (curative) inoculation. Compounds to be tested are prepared as DMSO solutions (max. 10 mg/ml) which are diluted to the appropriate concentration with 0.025% Tween20 just before spraying. The inoculated leaf disks or segments are incubated under defined conditions (temperature, relative humidity, light, etc.) according to the respective test system. A single evaluation of disease level is carried out 3 to 14 days after inoculation, depending on the pathosystem. Percent disease control relative to the untreated check leaf disks or segments is then calculated. Wheat leaf segments cv. Kanzler were placed on agar in multiwell plates (24-well format) and sprayed with the formulated test compound diluted in water. The leaf disks were inoculated with a spore suspension of the fungus 1 day after application. The inoculated leaf segments were incubated at 19° C. and 75% relative humidity (rh) under a light regime of 12 hours light/12 hours darkness in a climate cabinet and the activity of a compound was assessed as percent disease control compared to untreated when an appropriate level of disease damage appears in untreated check leaf segments (7 to 9 days after application).

The test system of another data set is Phakopsora pachyrhizi. Nature of the data set: Phakopsora pachyrhizi / soybean / leaf disc preventative (Asian soybean rust). Type of data set: in vivo. Particulars: foliar, 200 ppm in the applied formulation, soybean leaf disks, preventative (inoculated 1 day after application), compared to untreated control, read-out: disease control. The method, then:
Leaf disks or leaf segments of various plant species are cut from plants grown in a greenhouse. The cut leaf disks or segments are placed in multiwell plates (24-well format) onto water agar. The leaf disks are sprayed with a test solution before (preventative) or after (curative) inoculation. Compounds to be tested are prepared as DMSO solutions (max. 10 mg/ml) which are diluted to the appropriate concentration with 0.025% Tween20 just before spraying. The inoculated leaf disks or segments are incubated under defined conditions (temperature, relative humidity, light, etc.) according to the respective test system. A single evaluation of disease level is carried out 3 to 14 days after inoculation, depending on the pathosystem. Percent disease control relative to the untreated check leaf disks or segments is then calculated. Soybean leaf disks are placed on water agar in multiwell plates (24-well format) and sprayed with the formulated test compound diluted in water. One day after application leaf discs are inoculated by spraying a spore suspension on the lower leaf surface. After an incubation period in a climate cabinet of 24-36 hours in darkness at 20° C. and 75% rh leaf disc are kept at 20° C. with 12 h light/day and 75% rh. The activity of a compound is assessed as percent disease control compared to untreated when an appropriate level of disease damage appears in untreated check leaf disks (12 to 14 days after application).

Data set [3] relates to Glomerella laqenarium (Colletotrichum laqenarium). Kind of data set: Glomerella lagenarium liquid culture / cucumber / preventative (anthracnose). Particulars: 20 ppm in the applied formulation, liquid culture in PDB, growth inhibition measured photometrically 3 to 4 days after application, compared to untreated control, read-out: disease control. Type of data set: cell-based. The method, then: Mycelia fragments or conidia suspensions of a fungus prepared either freshly from liquid cultures of the fungus or from cryogenic storage, are directly mixed into nutrient broth. DMSO solutions of the test compound (max. 10 mg/ml) are diluted with 0.025% Tween20 by a factor of 50 and 10 μl of this solution is pipetted into a microtiter plate (96-well format). The nutrient broth containing the fungal spores/mycelia fragments is then added to give an end concentration of the tested compound. The test plates are incubated in the dark at 24° C. and 96% relative humidity. The inhibition of fungal growth is determined photometrically after 2 to 7 days, depending on the pathosystem, and percent antifungal activity relative to the untreated check is calculated. Conidia of the fungus from cryogenic storage are directly mixed into nutrient broth (PDB—potato dextrose broth). After placing a (DMSO) solution of test compound into a microtiter plate (96-well format), the nutrient broth containing the fungal spores is added. The test plates are incubated at 24° C. and the inhibition of growth is measured photometrically 3 to 4 days after application.

Broadly, the melting point is the temperature of the solid-liquid transition. With `CC1(C)CON=C1OCc1ccc(-c2noc(C(F)(F)F)n2)cc1` [Compound 1.1, 3-[4-[(4,4-dimethyl-5H-isoxazol-3-yl)oxymethyl]phenyl]-5-(trifluoromethyl)-1,2,4-oxadiazole], the melting point lay within 50.2 to 51.8 °C. Also, the pest or weed control at 200 ppm in data set [1] is at least 80%. Also, in data set [2], the pest or weed control at 200 ppm is at least 80%. Also, the pest or weed control at 200 ppm in the data set with Phakopsora pachyrhizi is at least 80%. For the same molecule, the inhibition of growth at 20 ppm in data set [3] was at least 80%.

`CC1(C)CC(OCc2ccc(-c3noc(C(F)(F)F)n3)cc2)=NO1` [Compound 1.3, 3-[4-[(5,5-dimethyl-4H-isoxazol-3-yl)oxymethyl]phenyl]-5-(trifluoromethyl)-1,2,4-oxadiazole] yielded a melting point of 107.9 to 108.6 °C. In the data set on Phakopsora pachyrhizi, the pest or weed control at 200 ppm was at least 80%. The inhibition of growth at 20 ppm in data set [3] was at least 80%.

`Fc1ccc(OCc2ccc(-c3noc(C(F)(F)F)n3)cc2)cc1` [Compound 1.6, 3-[4-[(4-fluorophenoxy)methyl]phenyl]-5-(trifluoromethyl)-1,2,4-oxadiazole] displayed a melting point of 174 to 176 °C. In addition, in data set [1], the pest or weed control at 200 ppm was at least 80%.

The molecule `FC(F)(F)c1nc(-c2ccc(COc3ccccc3)cc2)no1` [Compound 1.7, 3-[4-(phenoxymethyl)phenyl]-5-(trifluoromethyl)-1,2,4-oxadiazole] had a melting point of 105 to 107 °C. In addition, the pest or weed control at 200 ppm in data set [1] was at least 80%.

`FC(F)(F)c1nc(-c2ccc(COc3ccccn3)cc2)no1` [Compound 1.9, 3-[4-(2-pyridyloxymethyl)phenyl]-5-(trifluoromethyl)-1,2,4-oxadiazole] had a melting point of 86 to 88 °C. In addition, the pest or weed control at 200 ppm in data set [1] is at least 80%. For the same molecule, the pest or weed control at 200 ppm in data set [2] was at least 80%. The inhibition of growth at 20 ppm in data set [3] was at least 80%.

The molecule `Fc1cccc(F)c1OCc1ccc(-c2noc(C(F)(F)F)n2)cc1` [Compound 1.10, 3-[4-[(2,6-difluorophenoxy)methyl]phenyl]-5-(trifluoromethyl)-1,2,4-oxadiazole] came in with a melting point of 66 to 68 °C. Besides, in data set [1], the pest or weed control at 200 ppm is at least 80%.

On to `Fc1cc(COC2=NOCC2)ccc1-c1noc(C(F)(F)F)n1` [Compound 1.13, 3-[4-(4,5-dihydroisoxazol-3-yloxymethyl)-2-fluoro-phenyl]-5-(trifluoromethyl)-1,2,4-oxadiazole], for which the pest or weed control at 200 ppm (in data set [1]; in data set [2]; with Phakopsora pachyrhizi) was at least 80% in each case. In data set [3], the inhibition of growth at 20 ppm is at least 80%.

`N#Cc1ccc(OCc2ccc(-c3noc(C(F)(F)F)n3)cc2)nc1` [Compound 1.14, 6-[[4-[5-(trifluoromethyl)-1,2,4-oxadiazol-3-yl]phenyl]methoxy]pyridine-3-carbonitrile] returned a melting point of 156 to 158 °C. For the same molecule, the pest or weed control at 200 ppm in data set [2] was at least 80%. In addition, the inhibition of growth at 20 ppm in data set [3] was at least 80%.

Regarding `Cc1ccc(OCc2ccc(-c3noc(C(F)(F)F)n3)cc2)nc1` [Compound 1.15, 3-[4-[(5-methyl-2-pyridyl)oxymethyl]phenyl]-5-(trifluoromethyl)-1,2,4-ioxadiazole], the melting point lay within 141 to 143 °C. Moreover, in data set [1], the pest or weed control at 200 ppm was at least 80%.

`Fc1ccc(OCc2ccc(-c3noc(C(F)(F)F)n3)cc2)nc1` [Compound 1.16, 3-[4-[(5-fluoro-2-pyridyl)oxymethyl]phenyl]-5-(trifluoromethyl)-1,2,4-oxadiazole] came in with a melting point of 84 to 86 °C. Moreover, in the data set on Phakopsora pachyrhizi, the pest or weed control at 200 ppm is at least 80%.

With `CON=COCc1ccc(-c2noc(C(F)(F)F)n2)cc1` [Compound 1.23, [4-[5-(trifluoromethyl)-1,2,4-oxadiazol-3-yl]phenyl]methyl N-methoxymethanimidate], the pest or weed control at 200 ppm (in data set [1]; in data set [2]; in the data set with Phakopsora pachyrhizi) was at least 80% throughout. For the same molecule, the inhibition of growth at 20 ppm in data set [3] is at least 80%.

For `CC1(C)CC(OCc2cc(F)c(-c3noc(C(F)(F)F)n3)c(F)c2)=NO1` [Compound 1.26, 3-[4-[(5,5-dimethyl-4H-isoxazol-3-yl)oxymethyl]-2,6-difluoro-phenyl]-5-(trifluoromethyl)-1,2,4-oxadiazole], the pest or weed control at 200 ppm in data set [1] and in data set [2] was at least 80% in each case. Also, in data set [3], the inhibition of growth at 20 ppm is at least 80%.

Consider `CC(=O)OCc1ccc(-c2noc(C(F)(F)F)n2)cc1` [Compound 2.1, [4-[5-(trifluoromethyl)-1,2,4-oxadiazol-3-yl]phenyl]methyl acetate], for which the pest or weed control at 200 ppm in data set [2] is at least 80%. Also, the inhibition of growth at 20 ppm in data set [3] was at least 80%.

On to `O=C(NC1CC1)OCc1ccc(-c2noc(C(F)(F)F)n2)cc1` [Compound 3.2, [4-[5-(trifluoromethyl)-1,2,4-oxadiazol-3-yl]phenyl]methyl N-cyclopropylcarbamate], for which the pest or weed control at 200 ppm (in data set [1]; in data set [2]; in the data set on Phakopsora pachyrhizi) was at least 80% each time. For the same molecule, in data set [3], the inhibition of growth at 20 ppm is at least 80%.

Consider `O=C(NCC(F)(F)F)OCc1ccc(-c2noc(C(F)(F)F)n2)cc1` [Compound 3.3, [4-[5-(trifluoromethyl)-1,2,4-oxadiazol-3-yl]phenyl]methyl N-(2,2,2-trifluoroethyl)carbamate], for which the pest or weed control at 200 ppm in data set [1] and in data set [2] was at least 80% each time. In addition, the inhibition of growth at 20 ppm in data set [3] was at least 80%.

For the molecule `CC(OC(=O)N(C)C)c1ccc(-c2noc(C(F)(F)F)n2)cc1` (centres unmarked) [Compound 3.5, 1-[4-[5-(trifluoromethyl)-1,2,4-oxadiazol-3-yl]phenyl]ethyl N,N-dimethylcarbamate], the pest or weed control at 200 ppm in data set [1] and in data set [2] was at least 80% in each case. For the same molecule, the inhibition of growth at 20 ppm in data set [3] was at least 80%.

Consider `CC(C)=NOCc1ccc(-c2noc(C(F)(F)F)n2)cc1` [Compound 4.1, N-[[4-[5-(trifluoromethyl)-1,2,4-oxadiazol-3-yl]phenyl]methoxy]propan-2-imine], for which the melting point lay in the range of 48 to 52 °C. For the same molecule, in data set [1], the pest or weed control at 200 ppm is at least 80%.

As to `C/C(=N/OCc1ccc(-c2noc(C(F)(F)F)n2)cc1)N1CCOCC1` [Compound 4.3, (Z)-1-morpholino-N-[[4-[5-(trifluoromethyl)-1,2,4-oxadiazol-3-yl]phenyl]methoxy]ethanimine], the pest or weed control at 200 ppm (in data set [2]; with Phakopsora pachyrhizi) was at least 80% throughout. Further, in data set [3], the inhibition of growth at 20 ppm was at least 80%.
